Laboratory results: article PMC3410622 (2012)

Biological target: glutamate carboxypeptidase II (GCPII) (Homo sapiens, UniProt Q04609)
Type: biochemical

Sequence of glutamate carboxypeptidase II (GCPII) (Q04609 whole entry): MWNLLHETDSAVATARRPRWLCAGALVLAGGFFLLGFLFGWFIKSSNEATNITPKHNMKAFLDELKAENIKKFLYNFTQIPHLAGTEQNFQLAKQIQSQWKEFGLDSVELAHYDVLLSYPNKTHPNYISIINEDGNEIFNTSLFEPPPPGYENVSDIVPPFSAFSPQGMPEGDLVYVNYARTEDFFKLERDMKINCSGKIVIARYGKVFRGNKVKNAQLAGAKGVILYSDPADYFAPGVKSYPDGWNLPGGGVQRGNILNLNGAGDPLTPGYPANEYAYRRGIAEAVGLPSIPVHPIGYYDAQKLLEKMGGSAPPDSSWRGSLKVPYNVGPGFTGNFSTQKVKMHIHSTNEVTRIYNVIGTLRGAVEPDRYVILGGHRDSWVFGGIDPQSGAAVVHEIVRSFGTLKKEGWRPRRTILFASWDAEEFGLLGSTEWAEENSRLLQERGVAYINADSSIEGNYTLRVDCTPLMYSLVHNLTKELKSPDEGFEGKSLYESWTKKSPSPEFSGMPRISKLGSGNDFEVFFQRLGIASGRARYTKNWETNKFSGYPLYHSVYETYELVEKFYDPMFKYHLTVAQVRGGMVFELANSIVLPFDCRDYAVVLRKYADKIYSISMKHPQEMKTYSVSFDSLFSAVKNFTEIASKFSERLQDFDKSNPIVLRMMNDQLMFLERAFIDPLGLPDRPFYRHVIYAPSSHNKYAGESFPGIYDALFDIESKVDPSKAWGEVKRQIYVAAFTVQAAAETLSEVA

Ki: 39.4 ± 2.9 nM
Structure (SMILES): CCC[C@H](NC(=O)N[C@@H](CCC(=O)O)C(=O)O)C(=O)O [ZJ44, N-[[[(1S)-1-Carboxy-3-methylpropyl]amino]carbonyl]-L-glutamic acid]
